Assay results published in PMC7669869, “AdipoR1/AdipoR2 dual agonist recovers nonalcoholic steatohepatitis and related fibrosis via endoplasmic reticulum-mitochondria axis” (Nature Communications, 2020).
Where “and” joins values, the source holds several entries; their conditions need not be identical. Equal entries are not always repeated. Non-standard residues stand in square brackets, D forms with d. Residues, ends and D or L forms follow the SMILES beside them. Nva = CCC[C@H](N)C(=O)O

What was measured:
[1] = system: CCl4 induced liver fibrosis mice; test: CCl4 mice: apoptosis assay (TUNEL); assay type: in vivo, mouse; design: unit not given here; settings: CCl4 + JT003 mice
Procedure: (§1) Male mice liver fibrosis was induced by intraperitoneal injection of 20% CCl4 (Sigma, USA) diluted in corn oil (Aladdin, China) every 3 days for 6 weeks (n = 6; 5 ml kg^−1 body weight). Mice injected with equivalent volume of corn oil serves as control group (n = 6). Liver fibrosis mice treated with JT003 for 3 weeks were used to evaluated the pharmacological effects (n = 6; 500 μg kg^−1; daily intraperitoneal injection).
TUNEL assay was performed using 5 μm liver sections and the apoptotic cells were identified using a Cell Death Detection kit (Beyotime Biotechnology, Shanghai, China). And then the slices were counterstained with DAPI (Life science, ThermoFisher Scientific, USA). Six random fields from 6 slides per mice were examined, and the TUNEL-positive red area within the slides were counted by two individuals who were blinded to the treatment.

[2] = system: liver gene expression of CCl4 induced liver fibrosis mice; test: CCl4 mice: liver mRNA, quantitative RT-PCR; assay type: in vivo, mouse; design: key to BAX liver mRNA / BID liver mRNA / UCP2 liver mRNA / DGAT1 liver mRNA / GSTM1 liver mRNA / GPX1 liver mRNA / HO-1 liver mRNA / XBP1 liver mRNA / ATF4 liver mRNA / GRP78 liver mRNA / BIM liver mRNA: mRNA expression normalized to β-actin reference gene; settings: for BCL2 liver mRNA, relative expression (Apotosis), Supplementary Figure 16 / FAS liver mRNA, relative expression (Apotosis), Supplementary Figure 16: CCl4 + JT003 mice
Procedure: as §1
Liver total RNA was extracted by using Trizol reagent following the manufacture’s instruction (TransGen Biotech, China). The concentration of RNA was measured by Nanodrop 2000 (ThermoFisher Scientific, USA). cDNA was transcribed from 10ug total RNA with First Strand cDNA synthesis Super Mix (TransGen Biotech, China). The cDNA was diluted 1/50 and 1.0 uL were used as a template for qPCR. qPCR was performed with SYBR Green qPCR Super Mix (TransGen Biotech, China) in the Light Cycler 480 Real-Time PCR System (Roche, Swiss). Reference gene β-actin was used for data normalization. mRNA expression was analyzed with specific primers listed in Supplementary Table 2.

HFD induced NASH mice = test: HFD mice: fasting blood glucose, fasting insulin and adiponectin (ELISA); assay type: in vivo, mouse; settings: JT003 500 μg kg−1 i.p. daily 4 weeks, in words
Procedure: The NASH model was conducted with feeding a HFD for 16 weeks combine with a MCD diet (Methionine/Choline Deficient Diet, Medicience, China) in the last 4 weeks. Mice administered a MCS diet (Methionine/Choline Sufficient Diet, Medicience, China) serves as control group. NAFLD or NASH mice treated with JT003 for 4 weeks were used to evaluate the pharmacological effects (n = 6; 500 μg kg^−1; daily intraperitoneal injection). Food and water were provided ad libitum. The body weight of mice was examined every 3 days. The diet was renewed every 7 days. JT003 was diluted in PBS.
Fasting blood glucose was measured using OneTouch UltraVue Blood Glucose Meter and test strips (Johnson&Johnson, USA) from tail nicks. After HFD fed for 14 weeks and JT003 treated for 2 weeks, oral glucose tolerance tests were performed on 8 h fasted mice. 0.5 g ml^−1 D-glucose solution (Sigma-Aldrich, USA) were oral injected to mice (2 g kg^−1 of bodyweight), blood glucose level was recorded at baseline, 15, 30, 60, 120 min
The levels of ALT, AST, TC and TG in serum were determined using certain commercial assay kits (Nanjing Jiancheng Bioengineering Institute, China). Fasting adiponectin and insulin were quantified in plasma samples using corresponding commercially available Elisa kits (Cloud-Clone Crop, USA).

AdipoR2 = biological target: T1, AdipoR2 (Homo sapiens, UniProt Q86V24); test: Competition binding assay vs globular adiponectin (western blot), AdipoR2 overexpression cells; settings: JT003 4 h, then 50 μg ml−1 gAd155–161 4 h, in words
T1 construct: His; host or cells: HEK293
T1 sequence (Q86V24 1-386): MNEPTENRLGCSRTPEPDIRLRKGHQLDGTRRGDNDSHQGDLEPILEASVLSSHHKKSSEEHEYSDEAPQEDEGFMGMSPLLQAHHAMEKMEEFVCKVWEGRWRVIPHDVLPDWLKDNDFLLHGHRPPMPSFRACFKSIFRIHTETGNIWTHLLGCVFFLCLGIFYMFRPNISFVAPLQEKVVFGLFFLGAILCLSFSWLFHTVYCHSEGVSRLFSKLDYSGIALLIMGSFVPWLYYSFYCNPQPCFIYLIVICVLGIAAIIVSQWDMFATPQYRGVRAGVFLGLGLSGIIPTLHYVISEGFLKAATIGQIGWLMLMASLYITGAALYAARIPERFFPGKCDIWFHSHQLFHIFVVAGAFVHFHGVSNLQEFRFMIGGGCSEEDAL
Procedure: Different concentration of JT003 were incubated with AdipoR1 or AdipoR2 overexpression HEK293 cell line for 4 h. After that, 50 μg ml^−1 gAd155–161 were added for another 4 h incubation. The binding of gAd155–161 to the cells were measured via western blot assay.

[3] = CCl4 fibrosis mice, liver, JT003 500 μg kg−1, in words
[4] = CCl4 mice, liver, JT003 500 μg kg−1, in words
[5] = Figure 7d left, CCl4 + JT003 group, single replicates, n = 6
[6] = Figure 7d right, CCl4 + JT003 group, single replicates, n = 6

SMILES: CCC[C@H](NC(=O)[C@@H]1CCCN1)C(=O)N[C@@H](CC(C)C)C(=O)N[C@@H](Cc1ccc(O)cc1)C(=O)N[C@@H](Cc1ccc(O)cc1)C(=O)N[C@@H](Cc1ccccc1)C(=O)N[C@@H](C)C(N)=O [JT003] (H-P[Nva]LYYFA-NH2)
- TUNEL, Supplementary Figure 16 ([1]; replicate 1): 0.177
- TUNEL, Supplementary Figure 16 ([1]; replicate 2): 0.215
- TUNEL, Supplementary Figure 16 ([1]; replicate 3): 0.261
- TUNEL, Supplementary Figure 16 ([1]; replicate 4): 0.303
- TUNEL, Supplementary Figure 16 ([1]; replicate 5): 0.387
- TUNEL, Supplementary Figure 16 ([1]; replicate 6): 0.3
- TUNEL, Supplementary Figure 16 ([1]; replicate 7): 0.353
- TUNEL, Supplementary Figure 16 ([1]; replicate 8): 0.189
- TUNEL, Supplementary Figure 16 ([1]; replicate 9): 0.125
- TUNEL, Supplementary Figure 16 ([1]; replicate 10): 0.252
- BCL2 liver mRNA, relative expression (Apotosis), Supplementary Figure 16 ([2]; replicate 1): 19.1929
- FAS liver mRNA, relative expression (Apotosis), Supplementary Figure 16 ([2]; replicate 1): 0.7337
- BCL2 liver mRNA, relative expression (Apotosis), Supplementary Figure 16 ([2]; replicate 2): 9.563
- FAS liver mRNA, relative expression (Apotosis), Supplementary Figure 16 ([2]; replicate 2): 0.7492
- BCL2 liver mRNA, relative expression (Apotosis), Supplementary Figure 16 ([2]; replicate 3): 15.2158
- FAS liver mRNA, relative expression (Apotosis), Supplementary Figure 16 ([2]; replicate 3): 0.6522
- BCL2 liver mRNA, relative expression (Apotosis), Supplementary Figure 16 ([2]; replicate 4): 10.7592
- FAS liver mRNA, relative expression (Apotosis), Supplementary Figure 16 ([2]; replicate 4): 0.5898
- TGFβ, CTGF, IL-6, TNFα and IL-1β (HSCs activation) [2, 3]: all suppressed
- expression of genes related to ECM accumulation (TIMP1, MMP3 and MMP8) [2, 3]: decreased
- genes involved in ECM elimination (MMP2, MMP9 and MMP13) [2, 3]: notably upregulated
- ER-Stress related genes (XBP1, ATF4, GRP78 and BIM) ([2]; CCl4 induced fibrosis mice, liver, JT003 500 μg kg−1, in words): remarkably suppressed
- anti-apoptotic BCL2 (RT-PCR) [2, 4]: significantly improved
- apoptosis-related FAS (RT-PCR) [2, 4]: reduced
- ATF4 liver mRNA [2, 5]: 1.16 and 0.7959 and 1.086 (2×) and 0.9357 and 1.157
- BIM liver mRNA [2, 5]: 0.2472 and 0.8351 and 0.6258 and 0.6305 and 0.5305 and 0.5258
- GRP78 liver mRNA [2, 5]: 0.8253 and 1.201 and 1.072 (2×) and 0.9986 and 0.797
- XBP1 liver mRNA [2, 5]: 2.911 and 0.8961 and 1.2156 (2×) and 1.656 and 1.136
- DGAT1 liver mRNA ([2]; Figure 7d right, CCl4 + JT003 group, single replicates, 5 values): 0.8433 and 1.099 and 1.191 and 0.9141 and 2.738
- BAX liver mRNA [2, 6]: 1.955 and 0.8137 and 1.744 and 0.6724 and 1.0479 and 1.373
- BID liver mRNA [2, 6]: 1.296 and 0.8034 and 0.6436 and 0.8394 and 0.9828 and 0.9284
- GPX1 liver mRNA [2, 6]: 0.4793 and 0.5322 and 0.6634 and 0.7144 and 0.5138 and 0.7293
- GSTM1 liver mRNA [2, 6]: 0.3771 and 0.1875 and 0.195 and 1.014 and 0.3719 and 0.9044
- HO-1 liver mRNA [2, 6]: 1.179 and 1.19 and 1.314 and 1.134 and 1.372 and 1.274
- PGC1a liver mRNA [2, 6]: 1.328 and 1.046 and 1.167 and 1.184 and 1.337 and 1.083
- PGC1b liver mRNA [2, 6]: 1.159 and 2.677 and 4.191 and 3.928 and 2.638 and 2.374
- UCP2 liver mRNA [2, 6]: 0.9325 and 1.681 and 1.172 and 0.7627 and 0.8293 and 0.6383
- HFD-induced increasing of fasting blood glucose and fasting serum insulin levels (HFD induced NASH mice): decreased
- decrease in circulating adiponectin in the HFD group (HFD induced NASH mice): reverted remarkably
- competitive binding to globular adiponectin, AdipoR2 overexpression cells (AdipoR2): more JT003 cause less globular adiponectin binding
